Results from US4868182A, “Enhancement of prazosin” (Merrell Dow Pharmaceuticals Inc., priority 1988, dated 1989).

What was measured:
[1] = tested on: spontaneously hypertensive rats; assay: lowering of systolic blood pressure in spontaneously hypertensive rats; assay type: in vivo, rat; conditions: SHR, oral, prazosin 0.1 mg/kg, alone or combined, mean ± SE
[2] = molecular target: cyclic AMP-phosphodiesterase; assay: in vitro inhibition of cyclic AMP-phosphodiesterase; assay type: biochemical; conditions: 50% inhibition of cyclic AMP-phosphodiesterase activity on 1 micromolar substrate
Protocol: In general, the specific cyclic AMP-phosphodiesterase inhibitors of this invention, (i.e., the above-described cardiotonic agents) when conjunctively administered with prazosin to effect their synergistic activity, are administered at about the threshold dose to exert a blood pressure lowering effect, i.e., the minimum dose it takes to exert a statistically significant lowering of blood pressure. This threshold dose is readily determined by standard laboratory methodology. For example, assays such as the Spontaneously Hypertensive Rat and the Anesthesized Dog for testing blood pressure effects may readily be employed to determine the threshold dose of lowering blood pressure. The threshold dose may also be approximately calculated from an in vitro IC50 value. For this purpose the in vitro IC50 value is the micromolar quantity of compound needed to effect a 50% inhibition of the activity of cyclic AMP-phosphodiesterase on one (1) micromolar quantity of substrate. This IC50 value, when multiplied by the appropriate fraction for intravenous and oral administrations will yield the dosage range, in mg per kg of body weight, necessary to effect its synergism with prazosin.
On the basis of spontaneously hypertensive rat data the multiplying factor is 1/10 to 1 for the intravenous dose and 1 to 10 for the oral dose. […]

| IC50 [2] [µM] | SMILES | systolic blood pressure change from control at 1 hour ([1]; Table 2, amrinone 55 mg/kg) [mmHg] | systolic blood pressure change from control at 2 hours ([1]; Table 2, amrinone 55 mg/kg) [mmHg] | systolic blood pressure change from control at 3 hours ([1]; Table 2, amrinone 55 mg/kg) [mmHg] | systolic blood pressure change from control at 4 hours ([1]; Table 2, amrinone 55 mg/kg) [mmHg] | systolic blood pressure change from control at 1 hour ([1]; Table 1, piroximone 25 mg/kg) [mmHg] | systolic blood pressure change from control at 2 hours ([1]; Table 1, piroximone 25 mg/kg) [mmHg] | systolic blood pressure change from control at 3 hours ([1]; Table 1, piroximone 25 mg/kg) [mmHg] | systolic blood pressure change from control at 4 hours ([1]; Table 1, piroximone 25 mg/kg) [mmHg] |
| --- | --- | --- | --- | --- | --- | --- | --- | --- | --- |
| – | Nc1cc(-c2ccncc2)c[nH]c1=O [amrinone] | -26 ± 6 | -23 ± 5 | -21 ± 8 | -23 ± 7 | – | – | – | – |
| 26 | CCc1[nH]c(=O)[nH]c1C(=O)c1ccncc1 [piroximone] | – | – | – | – | -23 ± 5 | -17 ± 6 | -18 ± 7 | -20 ± 5 |
| – | COc1cc2nc(N3CCN(C(=O)c4ccco4)CC3)nc(N)c2cc1OC [prazosin] | -32 ± 3 | -31 ± 4 | -32 ± 4 | -31 ± 4 | -40 ± 4 | -40 ± 4 | -42 ± 4 | -35 ± 5 |
